Literature values, collected in patent publication US20240374497A1, “COMPOSITIONS COMPRISING OR2AT4 AGONISTS” (Coty Inc., priority 2021, published 2024).

Legend:
human epidermis = settings: ex vivo; selective activation of OR2AT4
[1] = tested on: human epidermal keratinocyte; settings: in vitro; selective activation of OR2AT4
[2] = target: T1, olfactory receptor OR2AT4 (Homo sapiens, UniProt A6NND4); settings: receptor expressed in the epithelium of human hair follicles
T1 sequence (A6NND4 1-320): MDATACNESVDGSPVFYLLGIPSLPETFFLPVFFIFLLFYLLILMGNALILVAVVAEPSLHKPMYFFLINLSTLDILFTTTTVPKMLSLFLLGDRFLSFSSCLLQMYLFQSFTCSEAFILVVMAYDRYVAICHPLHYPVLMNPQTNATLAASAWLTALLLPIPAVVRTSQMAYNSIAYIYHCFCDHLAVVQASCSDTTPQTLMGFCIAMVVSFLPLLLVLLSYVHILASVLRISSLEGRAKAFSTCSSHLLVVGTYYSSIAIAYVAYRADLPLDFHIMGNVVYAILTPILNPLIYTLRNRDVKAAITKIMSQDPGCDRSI

SMILES	wound re-epithelialization (human epidermis)	human epidermal keratinocyte migration and proliferation [1]	hair growth ex vivo (human hair follicles)	apoptosis (human hair follicles; ex vivo)	production of growth factor IGF-1 (human hair follicles; ex vivo)	effect on the olfactory receptor OR2AT4 [2]
CC1=CCC(CCC(C)C(C)O)C1(C)C (stereo not drawn) [Sandalore®]	promotes	promotes human epidermal keratinocyte migration and proliferation				
CC1=CCC(CCC(C)C(C)O)C1(C)C (stereo not drawn) [sandal pentanol, 3-methyl-5-(2,2,3-trimethylcyclopent-3-en-1-yl)pentan-2-ol]			prolongs hair growth	decreasing apoptosis	increasing the production of growth factor IGF-1	stimulatory effect
